Results published in patent US20250236614A1, “BICYCLIC TETRAHYDROAZEPINE DERIVATIVES” (Hoffmann-La Roche Inc., priority 2022, published 2025).
Like-named read-outs stand apart in the source and are kept apart here.

Tests used:
[1] = target: T1, hDGKalpha(1-735)-N-His (DGKA) (Homo sapiens, UniProt P23743); assay: In vitro DGK inhibition assay (ADP-Glo, in house), DGK alpha; format: biochemical; conditions: isomer A; 4 nM DGK α, 25 μM ATP, 125 μM DLG in liposomes, 1 hour reaction; read-out: DGKalpha ADP Glo assay IC50
T1 construct: hDGKalpha(1-735)-N-His; His (N)
T1 sequence (P23743 whole entry): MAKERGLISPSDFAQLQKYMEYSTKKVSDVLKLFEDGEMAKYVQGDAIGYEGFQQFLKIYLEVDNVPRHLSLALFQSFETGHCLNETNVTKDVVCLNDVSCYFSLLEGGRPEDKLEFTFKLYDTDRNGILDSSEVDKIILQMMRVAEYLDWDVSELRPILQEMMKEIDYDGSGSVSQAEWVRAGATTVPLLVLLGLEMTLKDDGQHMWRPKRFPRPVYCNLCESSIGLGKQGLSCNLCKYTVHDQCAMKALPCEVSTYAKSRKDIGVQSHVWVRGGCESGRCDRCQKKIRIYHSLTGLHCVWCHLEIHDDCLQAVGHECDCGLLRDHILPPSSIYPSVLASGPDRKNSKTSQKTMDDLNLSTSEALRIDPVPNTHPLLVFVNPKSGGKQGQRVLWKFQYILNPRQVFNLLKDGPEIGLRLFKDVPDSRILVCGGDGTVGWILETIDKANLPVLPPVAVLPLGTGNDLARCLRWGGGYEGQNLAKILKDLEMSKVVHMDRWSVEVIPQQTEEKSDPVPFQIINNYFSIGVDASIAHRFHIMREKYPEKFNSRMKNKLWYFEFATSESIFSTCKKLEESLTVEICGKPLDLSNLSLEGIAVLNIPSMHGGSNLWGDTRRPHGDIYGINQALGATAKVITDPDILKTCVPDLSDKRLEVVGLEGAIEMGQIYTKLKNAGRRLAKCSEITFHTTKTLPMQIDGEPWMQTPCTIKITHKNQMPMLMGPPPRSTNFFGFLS
Procedure, shortened: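 Sf21-expressed full-length His-tagged enzymes (DGKA 4 nM, DGKZ 2 nM) phosphorylated 125 μM DLG in PS/PC liposomes with ATP at 25 μM (DGKA) or 50 μM (DGKZ). After 1 h, ADP was measured by ADP-Glo luminescence. Compounds: 11-point 1:3 dilutions from 10 mM top concentration.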

[2] = test system: primary human T-cells; assay: T-cell proliferation assay (CellTiter-Glo); format: cell-based; conditions: isomer A; for EC50: CD3 antibody-stimulated T-cells, CellTiter-Glo after 5 days, read-out: Tcell Proliferation CD3 EC50
Procedure, shortened: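 Expanded primary human T-cells (100k/well) on CD3-antibody-coated or PBS-only plates, 5–6-point doses from 20 or 10 μM top, 0.2% DMSO; proliferation by CellTiter-Glo ATP luminescence after 5 days. Normalized to DMSO (0%) and 20 μM reference compound (100%); EC50 and Emax from sigmoidal fit for CD3 conditions.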

Compound	IC50 [1] [nM]	EC50 ([2]; Homo sapiens, T-cell, 120 h) [nM]	Emax ([2]; Homo sapiens, T-cell, 120 h, CD3 condition, 5 days, 20 μM reference compound A1 = 100%, DMSO neutral control, read-out: Emax proliferation (% activation)) [%]	EC50 [2] [nM]	Emax proliferation (% activation) ([2]; CD3 condition, 5 days, 20 μM reference compound A1 = 100%, DMSO neutral control)
CC(C)(C)c1nnc(-c2cc3c(cc2F)C(F)(F)CC(N)C(=O)N3Cc2ccc(OC(F)(F)F)cc2)o1 (stereo not drawn) [Example 1, 3-amino-8-(5-tert-butyl-1,3,4-oxadiazol-2-yl)-5,5,7-trifluoro-1-[[4-(trifluoromethoxy)phenyl]methyl]-3,4-dihydro-1-benzazepin-2-one]	33900	2590	74	–	–
(3S)-3-amino-5,5,7-trifluoro-8-(5-morpholino-1,3,4-oxadiazol-2-yl)-1-[[4-(trifluoromethoxy)phenyl]methyl]-3,4-dihydro-1-benzazepin-2-one and (3R)-3-amino-5,5,7-trifluoro-8-(5-morpholino-1,3,4-oxadiazol-2-yl)-1-[[4-(trifluoromethoxy)phenyl]methyl]-3,4-dihydro-1-benzazepin-2-one [Example 3]	1570	–	–	550	57
